The text below walks through data of US20240287122A1, “NOVEL GALACTOSIDE INHIBITOR OF GALECTINS” (GALECTO BIOTECH AB, priority 2020, published 2024).

Assay [1] concerns the target Galectin-1 (Homo sapiens, UniProt P09382). Description: Fluorescence anisotropy assay, affinity for galectin-1. It is filed as binding. Particulars: compound as inhibitor of the interaction between galectin and a fluorescein tagged saccharide probe. As to the method: (§1) The affinity of Example 1-43 for galectins were determined by a fluorescence anisotropy assay where the compound was used as an inhibitor of the interaction between galectin and a fluorescein tagged saccharide probe as described Sörme, P., Kahl-Knutsson, B., Huflejt, M., Nilsson, U. J., and Leffler H. (2004) Fluorescence polarization as an analytical tool to evaluate galectin-ligand interactions. Anal. Biochem. 334: 36-47, (Sörme et al., 2004) and Monovalent interactions of Galectin-1 By Salomonsson, Emma; Larumbe, Amaia; Tejler, Johan; Tullberg, Erik; Rydberg, Hanna; Sundin, Anders; Khabut, Areej; Frejd, Torbjomn; Lobsanov, Yuri D.; Rini, James M.; et al, From Biochemistry (2010), 49(44), 9518-9532, (Salomonsson et al., 2010).

For assay [2], the target named is Galectin-3 (Homo sapiens, UniProt P17931). Description: Fluorescence anisotropy assay, affinity for galectin-3. It is filed as binding. Particulars: compound as inhibitor of the interaction between galectin and a fluorescein tagged saccharide probe. The protocol:
as §1
For orientation: Polarisation of emitted light reports the rotation of a fluorescent probe.

Galectin-3, sequence (P17931 whole entry): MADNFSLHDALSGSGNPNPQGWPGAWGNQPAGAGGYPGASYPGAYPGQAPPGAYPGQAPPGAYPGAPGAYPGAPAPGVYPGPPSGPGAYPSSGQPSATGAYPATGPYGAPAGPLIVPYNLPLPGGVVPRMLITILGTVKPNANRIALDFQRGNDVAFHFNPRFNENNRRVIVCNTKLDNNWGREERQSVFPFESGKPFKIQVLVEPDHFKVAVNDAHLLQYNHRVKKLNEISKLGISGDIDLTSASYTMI
Galectin-1, sequence (P09382 whole entry): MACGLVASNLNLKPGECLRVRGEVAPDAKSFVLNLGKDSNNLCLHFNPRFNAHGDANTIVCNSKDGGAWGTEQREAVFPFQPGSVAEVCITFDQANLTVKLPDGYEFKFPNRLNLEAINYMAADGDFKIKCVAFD

For `COC1[C@@H](Sc2cc(Br)cnc2C(=O)NC23CC(C2)C3)OC(CO)[C@H](O)[C@@H]1n1cc(-n2ccc(Cl)n2)nn1` (stereo partly drawn) [Example 39, 5-Bromo-2-(N-bicyclo[1.1.1]pentan-1-ylcarbamoyl)pyridin-3-yl 3-[4-(3-chloro-1H-1,2-pyrazol-1-yl)-1H-1,2,3-triazol-1-yl]-3-deoxy-2-O-methyl-1-thio-α-D-galactopyranoside], the values for the Kd in assay [1] and in assay [2] were 64 nM and 180 nM, respectively.

In the case of `COC1[C@@H](Sc2cc(Br)cnc2C(=O)NC2CC2)OC(CO)[C@H](O)[C@@H]1n1cc(-n2ccc(Cl)n2)nn1` (stereo partly drawn) [Example 41, 5-Bromo-2-(N-cyclopropylcarbamoyl)pyridin-3-yl 3-[4-(3-chloro-1H-1,2-pyrazol-1-yl)-1H-1,2,3-triazol-1-yl]-3-deoxy-2-O-methyl-1-thio-α-D-galactopyranoside], the Kd (usually a measure of binding affinity in units of concentration) in assay [1] stood at 73 nM; in assay [2] it was 160 nM.

Turning to `CNC(=O)c1ncc(Br)cc1S[C@H]1OC(CO)[C@H](O)C(n2cc(-n3ccc(Cl)n3)nn2)C1OC` (stereo partly drawn) [Example 34, 5-Bromo-2-(N-methylcarbamoyl)pyridin-3-yl 3-[4-(3-chloro-1H-1,2-pyrazol-1-yl)-1H-1,2,3-triazol-1-yl]-3-deoxy-2-O-methyl-1-thio-α-D-galactopyranoside], the Kd in assay [1] was determined as 63 nM; in assay [2] it was 140 nM.

For `COC1C(n2cc(-n3ccc(Cl)n3)nn2)[C@@H](O)C(CO)O[C@@H]1Sc1cc(Br)cnc1C(=O)N(CC(C)C)C(C)C` (stereo partly drawn) [Example 32, 5-Bromo-2-(N,N-isobutylisopropylcarbamoyl)pyridin-3-yl 3-[4-(3-chloro-1H-1,2-pyrazol-1-yl)-1H-1,2,3-triazol-1-yl]-3-deoxy-2-O-methyl-1-thio-α-D-galactopyranoside], the Kd was found to be 110 nM in assay [1] and 63 nM in assay [2].

With `CCN(CC(F)(F)F)C(=O)c1ncc(Br)cc1S[C@H]1OC(CO)[C@H](O)C(n2cc(-n3ccc(Cl)n3)nn2)C1OC` (stereo partly drawn) [Example 29, 5-Bromo-2-[N,N-ethyl-(2,2,2-trifluoroethyl)carbamoyl]pyridin-3-yl 3-[4-(3-chloro-1H-1,2-pyrazol-1-yl)-1H-1,2,3-triazol-1-yl]-3-deoxy-2-O-methyl-1-thio-α-D-galactopyranoside], the values for the Kd in assay [1] and in assay [2] were 100 nM and 60 nM, respectively.

On to `CCNC(=O)c1ncc(Br)cc1S[C@H]1OC(CO)[C@H](O)[C@H](n2cc(-n3ccc(Cl)n3)nn2)C1OC` (stereo partly drawn) [Example 35, 5-Bromo-2-(N-ethylcarbamoyl)pyridin-3-yl 3-[4-(3-chloro-1H-1,2-pyrazol-1-yl)-1H-1,2,3-triazol-1-yl]-3-deoxy-2-O-methyl-1-thio-α-D-galactopyranoside], for which the values for the Kd in assay [1] and in assay [2] were 63 nM and 140 nM, respectively.

For `COC1C(n2cc(-n3cc(Cl)cn3)nn2)[C@@H](O)C(CO)O[C@@H]1Sc1cc(Br)cnc1C#N` (stereo partly drawn) [Example 11, 5-Bromo-2-cyanopyridin-3-yl 3-[4-(4-chloro-1H-1,2-pyrazol-1-yl)-1H-1,2,3-triazol-1-yl]-3-deoxy-2-O-methyl-1-thio-α-D-galactopyranoside], the Kd in assay [1] is 520 nM; in assay [2], 420 nM.

Turning to `COC1C(n2cc(-n3nccc3C)nn2)[C@@H](O)C(CO)O[C@@H]1Sc1cc(Br)cnc1C#N` (stereo partly drawn) [Example 15, 5-Bromo-2-cyanopyridin-3-yl 3-deoxy-3-[4-(5-methyl-1H-1,2-pyrazol-1-yl)-1H-1,2,3-triazol-1-yl]-2-O-methyl-1-thio-α-D-galactopyranoside], the results for the Kd in assay [1] and in assay [2] were 890 nM and 4300 nM, respectively.

For the molecule `CNC(=O)c1ccc(Br)cc1S[C@H]1OC(CO)[C@H](O)C(n2cc(-n3ccc(Cl)n3)nn2)C1OC` (stereo partly drawn) [Example 1, 5-Bromo-2-(N-methyl-carbonyl)phenyl 3-[4-(3-chloro-1H-1,2-pyrazol-1-yl)-1H-1,2,3-triazol-1-yl]-3-deoxy-2-O-methyl-1-thio-α-D-galactopyranoside], the Kd came out at 57 nM in assay [1] and 160 nM in assay [2].

Turning to `COC1C(n2cc(-n3ccc(Cl)n3)nn2)[C@@H](O)C(CO)O[C@@H]1Sc1cc(Br)cnc1C(=O)N(C)C` (stereo partly drawn) [Example 10, 5-Bromo-2-(N,N-dimethylcarbamoyl)pyridin-3-yl 3-[4-(3-chloro-1H-1,2-pyrazol-1-yl)-1H-1,2,3-triazol-1-yl]-3-deoxy-2-O-methyl-1-thio-α-D-galactopyranoside], the Kd was found to be 54 nM in assay [1] and 73 nM in assay [2].

With `COC1C(n2cc(-n3ccc(Cl)n3)nn2)[C@@H](O)C(CO)O[C@@H]1Sc1cnc(C(F)(F)F)c(Cl)c1` (stereo partly drawn) [Example 8, 3-Chloro-2-(trifluoromethyl)pyridin-5-yl 3-[4-(3-chloro-1H-1,2-pyrazol-1-yl)-1H-1,2,3-triazol-1-yl]-3-deoxy-2-O-methyl-1-thio-α-D-galactopyranoside], the Kd stood at 360 nM in assay [1] and 540 nM in assay [2].

On to `COC1C(n2cc(-n3nc(Cl)cc3C)nn2)[C@@H](O)C(CO)O[C@@H]1Sc1cc(Br)cnc1C#N` (stereo partly drawn) [Example 16, 5-Bromo-2-cyanopyridin-3-yl 3-[4-(3-chloro-5-methyl-1H-1,2-pyrazol-1-yl)-1H-1,2,3-triazol-1-yl]-3-deoxy-2-O-methyl-1-thio-α-D-galactopyranoside], for which the Kd was 350 nM in assay [1] and 400 nM in assay [2].

With `CCN(CC1CCC1)C(=O)c1ncc(Br)cc1S[C@H]1OC(CO)[C@H](O)C(n2cc(-n3ccc(Cl)n3)nn2)C1OC` (stereo partly drawn) [Example 25, 5-Bromo-2-[N,N-(cyclobutylmethyl)ethylcarbamoyl}pyridin-3-yl 3-[4-(3-chloro-1H-1,2-pyrazol-1-yl)-1H-1,2,3-triazol-1-yl]-3-deoxy-2-O-methyl-1-thio-α-D-galactopyranoside], the Kd stood at 140 nM in assay [1] and 75 nM in assay [2].

Turning to `COC1C(n2cc(-n3cc(Cl)c(Cl)n3)nn2)[C@@H](O)C(CO)O[C@@H]1Sc1cc(Br)cnc1C#N` (stereo partly drawn) [Example 42, 5-Bromo-2-cyanopyridin-3-yl 3-[4-(3,4-dichloro-1H-1,2-pyrazol-1-yl)-1H-1,2,3-triazol-1-yl]-3-deoxy-2-O-methyl-1-thio-α-D-galactopyranoside], the Kd in assay [1] turned out to be 290 nM; in assay [2] it was 30 nM.

Take `COC1C(n2cc(-n3ccc(Cl)n3)nn2)[C@@H](O)C(CO)O[C@@H]1Sc1cnc(C(F)(F)F)c(Br)c1` (stereo partly drawn) [Example 9, 3-Bromo-2-(trifluoromethyl)pyridin-5-yl 3-[4-(3-chloro-1H-1,2-pyrazol-1-yl)-1H-1,2,3-triazol-1-yl]-3-deoxy-2-O-methyl-1-thio-α-D-galactopyranoside]: the Kd in assay [1] turned out to be 210 nM; in assay [2], 390 nM.

As for `COC1C(n2cc(-n3cc(F)c(Cl)n3)nn2)[C@@H](O)C(CO)O[C@@H]1Sc1cc(Br)cnc1C#N` (stereo partly drawn) [Example 43, 5-Bromo-2-cyanopyridin-3-yl 3-[4-(3-chloro-4-fluoro-1H-1,2-pyrazol-1-yl)-1H-1,2,3-triazol-1-yl]-3-deoxy-2-O-methyl-1-thio-α-D-galactopyranoside], the Kd in assay [1] amounted to 270 nM; in assay [2], 140 nM.

With `COC1C(n2cc(-n3ccc(Cl)n3)nn2)[C@@H](O)C(CO)O[C@@H]1Sc1cc(Cl)cnc1C(F)(F)F` (stereo partly drawn) [Example 6, 5-Chloro-2-(trifluoromethyl)pyridin-3-yl 3-[4-(3-chloro-1H-1,2-pyrazol-1-yl)-1H-1,2,3-triazol-1-yl]-3-deoxy-2-O-methyl-1-thio-α-D-galactopyranoside], the Kd in assay [1] worked out at 200 nM; in assay [2], 270 nM.

In the case of `COC1C(n2cc(-n3ccc(Cl)n3)nn2)[C@@H](O)C(CO)O[C@@H]1Sc1cc(Br)cnc1C(=O)N(C)CC(C)(C)F` (stereo partly drawn) [Example 22, 5-Bromo-2-[N,N-(2-fluoro-2-methylpropyl)methylcarbamoyl]pyridin-3-yl 3-[4-(3-chloro-1H-1,2-pyrazol-1-yl)-1H-1,2,3-triazol-1-yl]-3-deoxy-2-O-methyl-1-thio-α-D-galactopyranoside], the Kd is 98 nM in assay [1] and 76 nM in assay [2].

Turning to `COC1C(n2cc(-n3ccc(F)n3)nn2)[C@@H](O)C(CO)O[C@@H]1Sc1cc(Br)cnc1C#N` (stereo partly drawn) [Example 12, 5-Bromo-2-cyanopyridin-3-yl 3-deoxy-3-[4-(3-fluoro-1H-1,2-pyrazol-1-yl)-1H-1,2,3-triazol-1-yl]-2-O-methyl-1-thio-α-D-galactopyranoside], the Kd in assay [1] is 180 nM; in assay [2], 160 nM.

Turning to `CCN(C(=O)c1ncc(Br)cc1S[C@H]1OC(CO)[C@H](O)C(n2cc(-n3ccc(Cl)n3)nn2)C1OC)C(C)C` (stereo partly drawn) [Example 19, 5-Bromo-2-(N,N-ethylisopropylcarbamoyl)pyridin-3-yl 3-[4-(3-chloro-1H-1,2-pyrazol-1-yl)-1H-1,2,3-triazol-1-yl]-3-deoxy-2-O-methyl-1-thio-α-D-galactopyranoside], the figures for the Kd in assay [1] and in assay [2] were 110 nM and 92 nM, respectively.

For `COC1[C@@H](Sc2cc(Br)cnc2C(=O)NC2CCC2)OC(CO)[C@H](O)[C@@H]1n1cc(-n2ccc(Cl)n2)nn1` (stereo partly drawn) [Example 40, 5-Bromo-2-(N-cyclobutylcarbamoyl)pyridin-3-yl 3-[4-(3-chloro-1H-1,2-pyrazol-1-yl)-1H-1,2,3-triazol-1-yl]-3-deoxy-2-O-methyl-1-thio-α-D-galactopyranoside], the values for the Kd in assay [1] and in assay [2] were 82 nM and 160 nM, respectively.
